Columns and labels:
[1] = system: hESC-derived stage 2 enteric ganglioid NO neurons; conditions: cFOS flow cytometry, cultures treated with epinephrine
[2] = system: enteric ganglioid neurons; conditions: MEA neuronal firing measurements
mouse colon = assay: Ex vivo colonic motility assay (organ bath, GIMM); conditions: for CMMC intervals at the 75th percentile relative to the untreated condition: five consecutive 10-min acquisitions, mouse colon ex vivo
[3] = system: stage 1 enteric ganglioids; assay: PP121 vs control gene expression correlation (snRNA-seq); assay type: cell-based, human
Text: To compare PP121 treated and untreated stage 1 enteric ganglioids in single cell resolution, we performed snRNA-seq and combined both datasets. […] FIG. S26 data not shown, but it describes PP121 treatment enriches NO neurons without affecting their overall cellular diversity.
To compare the gene expression of control and PP121 treated cell types, neuronal subtypes and NO neuron subtypes, a subset dataset of each cell type and subtype annotation was first created. For each subset, the non-imputed average expression of all genes was then calculated for the control and PP121 treated cells using the “AverageExpression” function and natural log transformed for plotting. R^2 values comparing the control and PP121 natural log expression values were calculated from linear modeling using the “y ˜x” formula. cFOS expression screening

VEGFRs = conditions: cited from earlier work
PDGFRs = conditions: cited from earlier work
[4] = system: H9 hESC-derived enteric crestospheres (NOS1+ neurons); assay: High-throughput screening to identify compounds that enrich NO neurons; assay type: cell-based, human; conditions: 1694 compounds, 1 μM, D15-D20, NOS1 staining at day 40
Text: (§1) To evaluate the potential of hPSC-derived cultures to model human ENS development, we set out to define the mechanism of NO neuron specification in vitro. Searching for pathways that regulate NO neuron differentiation, we performed a high-throughput small molecule screen. Identifying distinct pathways and chemical modulators that promote NO neuron induction could provide insights on NO neuron development and offer a strategy for the derivation of NO neuron enriched ENS cultures. • To identify compounds that induce NO neuron differentiation, we treated enteric crestospheres with 1694 compounds in the Selleck inhibitor library™ and identified 12 hit compounds that increased the proportion of NOS1^+ neurons by at least eight folds (FIG. 6A, FIGS. S25A and B). FIG. S25 data not shown, but it describes that small molecule high-throughput screening identifies compounds that enrich NO neurons in hESC-derived ENS cultures. […] After clustering the predicted protein targets, common patterns emerged for a subset of compounds.
Day 15 H9 hESC-derived enteric crestospheres were dissociated into single cells (accutase, Stemcell Technologies, 07920, 30 min, 37° C.), resuspended in ENC medium and were transferred into 384-well plates. Plates were incubated for 2 hours for cells to attach. […]

EGFRs = conditions: cited from earlier work
[5] = system: stage 1 NOS1::GFP enteric ganglioids; assay: NO neuron induction in stage 1 enteric ganglioids measured by flow cytometry (NOS1::GFP); assay type: cell-based, human; conditions: for NO neuron induction / NO neuron proportions: RTK ligand treatment, stage 1 enteric ganglioids
Text: as §1
To determine the mechanism by which PP121 induced NO neuron enrichment in ganglioids, we used a combination of pharmacological and genetic approaches. […] Our crestosphere snRNA-seq analysis confirmed the expression of PDGFRA, PDGFRB, ERBB2 and ERBB3 while the mRNA for VEGFRs were not detectable (FIG. 6L). We evaluated the induction efficiency of NO neurons in response to PDGF (PDGFR agonist), sunitinib (PDGFR and VEGFR antagonist), NRG1 (ERBBs agonist) and sapitinib (ERBBs antagonist) (FIG. 6M). […] To genetically confirm the role of PDGFR signaling in NO neuron induction, we used CRISPR-Cas9 to knock-out PDGFRA and PDGFRB in our enteric crestospheres and analyzed the percentage of NO neurons in stage 1 ganglioids. NO neurons were […] in both PDGFRA and PDGFRB knock-out cultures further confirming the PP121 mechanism of action (FIGS. 6O and P).

[6] = 6-min treatment, all five replicates

## CNC[C@H](O)c1ccc(O)c(O)c1 [Epinephrine, epinephrine]
[1]
  neuronal cFOS expression: induced neuronal cFOS expression
[2]
  electrical firing of ganglioid neurons: increased electrical firing

## Cc1cccc(C#Cc2ccccc2)n1 [MPEP]
Mouse colon
  CMMC intervals at the 75th percentile relative to the untreated condition: promising effects on lowering CMMC intervals

## Nc1ncnc2c1c(-c1cnc3[nH]ccc3c1)nn2C1CCCC1 [PP121]
[3]; merged control and PP121 treated neurons, snRNA-seq
  abundance of neuronal subtypes: enriched cultures for neuronal subtypes EN D and H
[3]; merged control and PP121 treated nitrergic neurons
  abundance of nitrergic neuron subtypes: enrichment for Nitrergic B
VEGFRs
  inhibitory activity on VEGFRs: known inhibitory activity
PDGFRs
  inhibitory activity on PDGFRs: known inhibitory activity
[4]
  increase of the proportion of NOS1+ neurons relative to vehicle (DMSO): highest % NOS1^+ fold increase in this subset of compounds
EGFRs
  inhibitory activity on EGFRs: known inhibitory activity
[5]; five-day treatment at various time points, GFP signal in stage 1 ganglioids
  NOS1::GFP induction efficiency by treatment window: highest induction efficiency for cells treated during day 15-20
[5]; flow cytometry
  NO neuron induction efficiency, dose dependence: dose-dependent effect

## O=C1CCc2ccc(OCCCCN3CCN(c4cccc(Cl)c4Cl)CC3)cc2N1 [aripiprazole]
Mouse colon
  CMMC intervals at the 75th percentile relative to the untreated condition: promising effects on lowering CMMC intervals

## Cc1cccc([C@H](C)c2cnc[nH]2)c1C [dexmedetomidine]
Mouse colon; [6]
  average duration of LCEs: increasing trend in their average duration
  total number of longitudinal contractile events (LCEs): decrease in the total number of LCEs
Mouse colon; Krebs wash after drug
  effects on LCEs after the drug removal: reversed after the drug removal
Mouse colon; L-NAME co-treatment
  effects on LCEs with L-NAME co-treatment: blocked by L-NAME co-treatment
Mouse colon; dexmedetomidine+L-NAME simultaneously
  effect on CMMC intervals with simultaneous L-NAME: absent
Mouse colon
  CMMC intervals at the 75th percentile relative to the untreated condition: promising effects on lowering CMMC intervals
Mouse colon; sequential 6-min acquisitions, five sample pairs, drug alone
  CMMC intervals: decreased CMMC intervals in four out of five colon samples
Mouse colon; sequential drug treatment
  slow waves (SW): not affected

## O=C1CCC[C@@H]2[C@H]3CCCN4CCC[C@@H](CN12)[C@@H]34 [matrine]
Mouse colon
  CMMC intervals at the 75th percentile relative to the untreated condition: promising effects on lowering CMMC intervals

## CNC(=O)CN1CCC(Oc2cc3c(Nc4cccc(Cl)c4F)ncnc3cc2OC)CC1 [sapitinib]
[5]
  NO neuron induction / NO neuron proportions: no significant effect

## PDGF
[5]
  NO neuron induction / NO neuron proportions: lower

— patent US20250099508A1, “SYSTEMS, CELL LINES AND METHODS OF PRODUCING AND USING THE SAME” (THE REGENTS OF THE UNIVERSITY OF CALIFORNIA, priority 2022, published 2025)
